Test results from US9283222B2 (priority 2006, dated 2016).
pKi: −log10 of the molar value.

target: Recombinant Human Poly(ADP-Ribose) Polymerase (PARP), PARP-1 (Homo sapiens (Human), UniProt P09874); conditions: read-out: PARP-1 (Ki); Table 1; text calls the values EC50s
Sequence (P09874 whole entry): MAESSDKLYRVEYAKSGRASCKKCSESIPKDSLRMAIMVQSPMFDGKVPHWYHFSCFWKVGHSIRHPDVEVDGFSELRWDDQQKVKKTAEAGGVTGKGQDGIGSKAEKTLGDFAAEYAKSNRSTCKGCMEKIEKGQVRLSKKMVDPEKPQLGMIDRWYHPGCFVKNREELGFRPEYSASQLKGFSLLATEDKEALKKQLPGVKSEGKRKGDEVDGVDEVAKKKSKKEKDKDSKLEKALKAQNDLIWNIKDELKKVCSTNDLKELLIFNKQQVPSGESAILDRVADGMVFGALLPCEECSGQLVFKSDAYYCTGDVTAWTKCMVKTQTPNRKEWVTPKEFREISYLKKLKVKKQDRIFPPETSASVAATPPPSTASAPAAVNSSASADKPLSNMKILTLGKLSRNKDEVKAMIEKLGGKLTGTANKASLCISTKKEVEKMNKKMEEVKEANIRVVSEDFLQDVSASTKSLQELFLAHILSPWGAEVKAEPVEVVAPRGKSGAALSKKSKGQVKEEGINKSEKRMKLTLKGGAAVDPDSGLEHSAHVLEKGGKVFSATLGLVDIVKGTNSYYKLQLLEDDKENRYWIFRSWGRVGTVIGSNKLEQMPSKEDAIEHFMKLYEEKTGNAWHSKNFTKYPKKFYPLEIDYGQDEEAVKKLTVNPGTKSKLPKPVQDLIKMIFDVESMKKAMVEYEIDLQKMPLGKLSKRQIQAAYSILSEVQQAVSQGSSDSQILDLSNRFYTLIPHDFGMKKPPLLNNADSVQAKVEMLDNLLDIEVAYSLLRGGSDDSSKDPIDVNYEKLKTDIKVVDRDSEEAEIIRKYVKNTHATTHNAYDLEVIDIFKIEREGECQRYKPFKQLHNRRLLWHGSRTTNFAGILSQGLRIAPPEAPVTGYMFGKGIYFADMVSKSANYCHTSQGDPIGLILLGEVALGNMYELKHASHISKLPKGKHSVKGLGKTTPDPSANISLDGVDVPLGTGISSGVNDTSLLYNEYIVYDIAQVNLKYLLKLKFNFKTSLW

Row | Compound | pKi
1 | O=C(c1cc(Cc2n[nH]c(=O)c3c2CCCC3)ccc1F)N1CCN(C(=O)N2CCCCC2)CC1 [Example 495, 4-(4-fluoro-3-{[4-(piperidin-1-ylcarbonyl)piperazin-1-yl]carbonyl}benzyl)-5,6,7,8-tetrahydrophthalazin-1(2H)-one] | 8.72
2 | O=C(c1cc(Cc2n[nH]c(=O)c3c2CCCC3)ccc1F)N1CCN(c2cnccn2)CC1 [Example 496, 4-{4-fluoro-3-[(4-pyrazin-2-ylpiperazin-1-yl)carbonyl]benzyl}-5,6,7,8-tetrahydrophthalazin-1(2H)-one] | 9.10
3 | O=C(c1cc(Cc2n[nH]c(=O)c3c2CCCC3)ccc1F)N1CCN(c2ccncc2)CC1 [Example 497, 4-{4-fluoro-3-[(4-pyridin-4-ylpiperazin-1-yl)carbonyl]benzyl}-5,6,7,8-tetrahydrophthalazin-1(2H)-one] | 8.96
4 | NC(=O)C1CCN(C(=O)c2cc(Cc3n[nH]c(=O)c4c3CCCC4)ccc2F)CC1 [Example 498, 1-{2-fluoro-5-[(4-oxo-3,4,5,6,7,8-hexahydrophthalazin-1-yl)methyl]benzoyl}piperidine-4-carboxamide] | 8.57
5 | Cc1cncc(N2CCN(C(=O)c3cc(Cc4n[nH]c(=O)c5c4CCCC5)ccc3F)CC2)n1 [Example 499, 4-(4-fluoro-3-{[4-(6-methylpyrazin-2-yl)piperazin-1-yl]carbonyl}benzyl)-5,6,7,8-tetrahydrophthalazin-1(2H)-one] | 8.80
6 | NC(=O)C1CCCN(C(=O)c2cc(Cc3n[nH]c(=O)c4c3CCCC4)ccc2F)C1 (centres unmarked) [Example 500, 1-{2-fluoro-5-[(4-oxo-3,4,5,6,7,8-hexahydrophthalazin-1-yl)methyl]benzoyl}piperidine-3-carboxamide] | 8.52
7 | CN(C)CCN1CCN(C(=O)c2cc(Cc3n[nH]c(=O)c4c3CCCC4)ccc2F)CC1 [Example 501, 4-[3-({4-[2-(dimethylamino)ethyl]piperazin-1-yl}carbonyl)-4-fluorobenzyl]-5,6,7,8-tetrahydrophthalazin-1(2H)-one] | 8.40
8 | CN1CCCN(C(=O)c2cc(Cc3n[nH]c(=O)c4c3CCCC4)ccc2F)CC1 [Example 502, 4-{4-fluoro-3-[(4-methyl-1,4-diazepan-1-yl)carbonyl]benzyl}-5,6,7,8-tetrahydrophthalazin-1(2H)-one] | 8.82
9 | O=C(c1cc(Cc2n[nH]c(=O)c3c2CCCC3)ccc1F)N1CCC(O)CC1 [Example 503, 4-{4-fluoro-3-[(4-hydroxypiperidin-1-yl)carbonyl]benzyl}-5,6,7,8-tetrahydrophthalazin-1(2H)-one] | 8.89
10 | CN(C)CCN(C)C(=O)c1cc(Cc2n[nH]c(=O)c3c2CCCC3)ccc1F [Example 504, N-[2-(dimethylamino)ethyl]-2-fluoro-N-methyl-5-[(4-oxo-3,4,5,6,7,8-hexahydrophthalazin-1-yl)methyl]benzamide] | 8.44
11 | CCN(CC)C(=O)C1CCCN(C(=O)c2cc(Cc3n[nH]c(=O)c4c3CCCC4)ccc2F)C1 (centres unmarked) [Example 505, N,N-diethyl-1-{2-fluoro-5-[(4-oxo-3,4,5,6,7,8-hexahydrophthalazin-1-yl)methyl]benzoyl}piperidine-3-carboxamide] | 8.22
12 | CN1CCCN(C(=O)c2cc(Cc3n[nH]c(=O)c4c3NCCC4)ccc2F)CC1 [Example 509, 8-{4-fluoro-3-[(4-methyl-1,4-diazepan-1-yl)carbonyl]benzyl}-2,3,4,6-tetrahydropyrido[2,3-d]pyridazin-5(1H)-one] | 8.52
13 | CN(C)CCN(C)C(=O)c1cc(Cc2n[nH]c(=O)c3c2NCCC3)ccc1F [Example 513, N-[2-(dimethylamino)ethyl]-2-fluoro-N-methyl-5-[(5-oxo-1,2,3,4,5,6-hexahydropyrido[2,3-d]pyridazin-8-yl)methyl]benzamide] | 8.22
14 | O=C(c1cc(Cc2n[nH]c(=O)c3c2CCCC3)ccc1F)N1CCN(Cc2cccc(Cl)c2)CC1 [Example 514, 4-(3-{[4-(3-chlorobenzyl)piperazin-1-yl]carbonyl}-4-fluorobenzyl)-5,6,7,8-tetrahydrophthalazin-1(2H)-one] | 8.05
15 | O=C(c1cc(Cc2n[nH]c(=O)c3c2CCCC3)ccc1F)N1CCN(c2ccccc2)CC1 [Example 515, 4-{4-fluoro-3-[(4-phenylpiperazin-1-yl)carbonyl]benzyl}-5,6,7,8-tetrahydrophthalazin-1(2H)-one] | 8.52
16 | O=C(c1cc(Cc2n[nH]c(=O)c3c2CCCC3)ccc1F)N1CCN(c2ccccc2Cl)CC1 [Example 517, 4-(3-{[4-(2-chlorophenyl)piperazin-1-yl]carbonyl}-4-fluorobenzyl)-5,6,7,8-tetrahydrophthalazin-1(2H)-one] | 8.30
17 | O=C(c1cc(Cc2n[nH]c(=O)c3c2CCCC3)ccc1F)N1CCN(Cc2ccccc2Cl)CC1 [Example 518, 4-(3-{[4-(2-chlorobenzyl)piperazin-1-yl]carbonyl}-4-fluorobenzyl)-5,6,7,8-tetrahydrophthalazin-1(2H)-one] | 8.00
18 | NC(=O)C1CCCN(C(=O)c2cc(Cc3n[nH]c(=O)c4c3NCCC4)ccc2F)C1 (centres unmarked) [Example 519, 1-{2-fluoro-5-[(5-oxo-1,2,3,4,5,6-hexahydropyrido[2,3-d]pyridazin-8-yl)methyl]benzoyl}piperidine-3-carboxamide] | 8.30

Row | Compound | pKi
19 | CC(=O)N1CCN(C(=O)c2cc(Cc3n[nH]c(=O)c4c3CCCC4)ccc2F)CC1 [Example 520, 4-{3-[(4-acetylpiperazin-1-yl)carbonyl]-4-fluorobenzyl}-5,6,7,8-tetrahydrophthalazin-1(2H)-one] | 10.00
20 | O=C(c1cc(Cc2n[nH]c(=O)c3c2CCCC3)ccc1F)N1CCN(c2ccccc2F)CC1 [Example 523, 4-(4-fluoro-3-{[4-(2-fluorophenyl)piperazin-1-yl]carbonyl}benzyl)-5,6,7,8-tetrahydrophthalazin-1(2H)-one] | 7.89
21 | O=C(c1cc(Cc2n[nH]c(=O)c3c2CCCC3)ccc1F)N1CCN(c2ccc(F)cc2F)CC1 [Example 524, 4-(3-{[4-(2,4-difluorophenyl)piperazin-1-yl]carbonyl}-4-fluorobenzyl)-5,6,7,8-tetrahydrophthalazin-1(2H)-one] | 8.30
22 | O=C(c1ccccc1)N1CCN(C(=O)c2cc(Cc3n[nH]c(=O)c4c3CCCC4)ccc2F)CC1 [Example 525, 4-{3-[(4-benzoylpiperazin-1-yl)carbonyl]-4-fluorobenzyl}-5,6,7,8-tetrahydrophthalazin-1(2H)-one] | 8.80
23 | O=C(c1cc(Cc2n[nH]c(=O)c3c2NCCC3)ccc1F)N1CCN(C(=O)N2CCCCC2)CC1 [Example 526, 8-(4-fluoro-3-{[4-(piperidin-1-ylcarbonyl)piperazin-1-yl]carbonyl}benzyl)-2,3,4,6-tetrahydropyrido[2,3-d]pyridazin-5(1H)-one] | 8.40
24 | O=C(c1cc(Cc2n[nH]c(=O)c3c2CCCC3)ccc1F)N1CCN(c2cccc(F)c2)CC1 [Example 527, 4-(4-fluoro-3-{[4-(3-fluorophenyl)piperazin-1-yl]carbonyl}benzyl)-5,6,7,8-tetrahydrophthalazin-1(2H)-one] | 8.52
25 | O=C(c1cc(Cc2n[nH]c(=O)c3c2CCCC3)ccc1F)N1CCN(c2ccc(F)cc2)CC1 [Example 528, 4-(4-fluoro-3-{[4-(4-fluorophenyl)piperazin-1-yl]carbonyl}benzyl)-5,6,7,8-tetrahydrophthalazin-1(2H)-one] | 8.40
26 | O=C(c1cc(Cc2n[nH]c(=O)c3c2CCCC3)ccc1F)N1CCN(c2ccccn2)CC1 [Example 529, 4-{4-fluoro-3-[(4-pyridin-2-ylpiperazin-1-yl)carbonyl]benzyl}-5,6,7,8-tetrahydrophthalazin-1(2H)-one] | 8.70
27 | CCN(CC)C(=O)N1CCN(C(=O)c2cc(Cc3n[nH]c(=O)c4c3CCCC4)ccc2F)CC1 [Example 530, N,N-diethyl-4-{2-fluoro-5-[(4-oxo-3,4,5,6,7,8-hexahydrophthalazin-1-yl)methyl]benzoyl}piperazine-1-carboxamide] | 8.70
28 | CC(C)N1CCN(C(=O)c2cc(Cc3n[nH]c(=O)c4c3CCCC4)ccc2F)CC1 [Example 531, 4-{4-fluoro-3-[(4-isopropylpiperazin-1-yl)carbonyl]benzyl}-5,6,7,8-tetrahydrophthalazin-1(2H)-one] | 8.70
29 | O=C(CN1CCN(C(=O)c2cc(Cc3n[nH]c(=O)c4c3NCCC4)ccc2F)CC1)N1CCCC1 [Example 532, 8-(4-fluoro-3-{[4-(2-oxo-2-pyrrolidin-1-ylethyl)piperazin-1-yl]carbonyl}benzyl)-2,3,4,6-tetrahydropyrido[2,3-d]pyridazin-5(1H)-one] | 8.40
30 | O=C(c1cc(Cc2n[nH]c(=O)c3c2CCCC3)ccc1F)N1CCN(C(=O)N2CCOCC2)CC1 [Example 533, 4-(4-fluoro-3-{[4-(morpholin-4-ylcarbonyl)piperazin-1-yl]carbonyl}benzyl)-5,6,7,8-tetrahydrophthalazin-1(2H)-one] | 8.70
31 | NC(=O)C1CCN(C(=O)c2cc(Cc3n[nH]c(=O)c4c3NCCC4)ccc2F)CC1 [Example 534, 1-{2-fluoro-5-[(5-oxo-1,2,3,4,5,6-hexahydropyrido[2,3-d]pyridazin-8-yl)methyl]benzoyl}piperidine-4-carboxamide] | 8.70
32 | O=C(c1cc(Cc2n[nH]c(=O)c3c2NCCC3)ccc1F)N1CCN(CCO)CC1 [Example 535, 8-(4-fluoro-3-{[4-(2-hydroxyethyl)piperazin-1-yl]carbonyl}benzyl)-2,3,4,6-tetrahydropyrido[2,3-d]pyridazin-5(1H)-one] | 8.40
33 | O=C(CN1CCN(C(=O)c2cc(Cc3n[nH]c(=O)c4c3CCCC4)ccc2F)CC1)N1CCCC1 [Example 537, 4-(4-fluoro-3-{[4-(2-oxo-2-pyrrolidin-1-ylethyl)piperazin-1-yl]carbonyl}benzyl)-5,6,7,8-tetrahydrophthalazin-1(2H)-one] | 8.60
34 | CC(C)NC(=O)Nc1cc(Cc2n[nH]c(=O)c3c2CCCC3)ccc1F [Example 538, N-{2-fluoro-5-[(4-oxo-3,4,5,6,7,8-hexahydrophthalazin-1-yl)methyl]phenyl}-N′-isopropylurea] | 6.43
35 | CCCNC(=O)Nc1cc(Cc2n[nH]c(=O)c3c2CCCC3)ccc1F [Example 539, N-{2-fluoro-5-[(4-oxo-3,4,5,6,7,8-hexahydrophthalazin-1-yl)methyl]phenyl}-N′-propylurea] | 6.72
